Assay results from PubChem BioAssay (NCI).
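In this assay, cells in 96-well plates receive the compound at five concentrations for 48 hours. Endpoints are linearly interpolated between the surrounding concentrations. The concentration for full growth arrest is given as TGI.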

Experiments:
Assay in all cases: NCI tumour cell line growth inhibition, 48 h
RXF 393 renal = tested on: RXF 393 renal
PC-3 prostate = tested on: PC-3 prostate
MALME-3M melanoma = tested on: MALME-3M melanoma
DU-145 prostate = tested on: DU-145 prostate
SN12C renal = tested on: SN12C renal
NCI-H460 lung = tested on: NCI-H460 lung
MDA-MB-435 = tested on: MDA-MB-435
HT29 colon = tested on: HT29 colon
A498 renal = tested on: A498 renal
EKVX NSCLC = tested on: EKVX NSCLC
KM12 colon = tested on: KM12 colon
T-47D breast = tested on: T-47D breast
SF-539 CNS = tested on: SF-539 CNS
MDA-N = tested on: MDA-N
HCT-15 colon = tested on: HCT-15 colon
786-0 renal = tested on: 786-0 renal
HCT-116 colon = tested on: HCT-116 colon
SW-620 colon = tested on: SW-620 colon
IGROV1 ovarian = tested on: IGROV1 ovarian
HS 578T breast = tested on: HS 578T breast
COLO 205 colon = tested on: COLO 205 colon
K-562 leukemia = tested on: K-562 leukemia
HOP-92 NSCLC = tested on: HOP-92 NSCLC
OVCAR-4 ovarian = tested on: OVCAR-4 ovarian
NCI-H522 lung = tested on: NCI-H522 lung
MOLT-4 leukemia = tested on: MOLT-4 leukemia
UACC-62 melanoma = tested on: UACC-62 melanoma
MCF7 breast = tested on: MCF7 breast
HOP-62 NSCLC = tested on: HOP-62 NSCLC
HCC-2998 colon = tested on: HCC-2998 colon
OVCAR-5 ovarian = tested on: OVCAR-5 ovarian
NCI-H23 lung = tested on: NCI-H23 lung
SF-295 CNS = tested on: SF-295 CNS
A549 NSCLC = tested on: A549 NSCLC
RPMI-8226 leukemia = tested on: RPMI-8226 leukemia
UACC-257 melanoma = tested on: UACC-257 melanoma
SK-OV-3 ovarian = tested on: SK-OV-3 ovarian
CCRF-CEM leukemia = tested on: CCRF-CEM leukemia
M14 melanoma = tested on: M14 melanoma
MDA-MB-231 breast = tested on: MDA-MB-231 breast
SK-MEL-28 melanoma = tested on: SK-MEL-28 melanoma
OVCAR-8 ovarian = tested on: OVCAR-8 ovarian
NCI/ADR-RES ovarian = tested on: NCI/ADR-RES ovarian
SK-MEL-2 melanoma = tested on: SK-MEL-2 melanoma
OVCAR-3 ovarian = tested on: OVCAR-3 ovarian
UO-31 renal = tested on: UO-31 renal
CAKI-1 renal = tested on: CAKI-1 renal
LOX IMVI melanoma = tested on: LOX IMVI melanoma
SNB-19 CNS = tested on: SNB-19 CNS
SF-268 CNS = tested on: SF-268 CNS
NCI-H226 lung = tested on: NCI-H226 lung
TK-10 renal = tested on: TK-10 renal
U251 CNS = tested on: U251 CNS
ACHN renal = tested on: ACHN renal
SK-MEL-5 melanoma = tested on: SK-MEL-5 melanoma
SNB-75 CNS = tested on: SNB-75 CNS
HL-60(TB) leukemia = tested on: HL-60(TB) leukemia
BT-549 breast = tested on: BT-549 breast

Measured: TGI

O=C(Nc1ccccc1)c1cc(S(=O)(=O)Nc2nc3ncccc3[nH]2)c(SSc2cc(Cl)c(C(=O)Nc3ccccc3)cc2S(=O)(=O)Nc2nc3ncccc3[nH]2)cc1Cl
> 100 µM: RXF 393 renal | PC-3 prostate | MALME-3M melanoma | DU-145 prostate | SN12C renal | NCI-H460 lung | MDA-MB-435 | HT29 colon | A498 renal | EKVX NSCLC | KM12 colon | T-47D breast | SF-539 CNS | MDA-N | HCT-15 colon | 786-0 renal | HCT-116 colon | SW-620 colon | IGROV1 ovarian | HS 578T breast | COLO 205 colon | K-562 leukemia | HOP-92 NSCLC | OVCAR-4 ovarian | NCI-H522 lung | MOLT-4 leukemia | UACC-62 melanoma | MCF7 breast | HOP-62 NSCLC | HCC-2998 colon | OVCAR-5 ovarian | NCI-H23 lung | SF-295 CNS | A549 NSCLC | RPMI-8226 leukemia | UACC-257 melanoma | SK-OV-3 ovarian | CCRF-CEM leukemia | M14 melanoma | MDA-MB-231 breast | SK-MEL-28 melanoma | OVCAR-8 ovarian | NCI/ADR-RES ovarian | SK-MEL-2 melanoma | OVCAR-3 ovarian | UO-31 renal | CAKI-1 renal | LOX IMVI melanoma | SNB-19 CNS | SF-268 CNS | NCI-H226 lung | TK-10 renal | U251 CNS | ACHN renal | SK-MEL-5 melanoma | SNB-75 CNS | HL-60(TB) leukemia | BT-549 breast
